Test system: gray mold fungus (Botrytis cinerea)
Assay: Cucumber leaf disk preventive test against gray mold fungus
Assay type: in vivo
Conditions: 15° C., six days
Description: True leaf of cucumber was punched out with cork borer to 13 mm in diameter to prepare a leaf disk. In 24 well microwell plate that was dispensed with 1 ml 0.8% water agar, the leaf disk was placed such that the upper side of the leaf was in an upward direction. […] Control where 20 micro liter ion-exchange water was spread was prepared (for non-treated group). After confirming that the spray solution was dried, conidium of gray mold fungus (Botrytis cinerea) was suspended into potato dextrose broth (DIFCO) in a density of about 10^5 conidia/mL and was then subjected to a spray inoculation. After leaving to stand the leaf disk in a growth chamber set up at 15° C. for six days, an onset area on each leaf was measured and a preventive value was then calculated by the following equation 1.
The same above operations were carried out using the present diamide compound (2c) or the present diamide compound (3) instead of the present diamide compound (2b), so as to obtain the respective preventive values. Preventive value(%)=100×(A−B)/A (Equation 1)
A: an onset area rate of plant belonging to non-treated group
B: an onset area rate of plant belonging to treated Group onset area rate=(onset area of the leaf disk)/(the total area of the leaf disk) […]

Question: Which “preventive value (%)” value (the present amide compound alone 1.0 ppm (dimethyl sulfoxide solution)) does the source give for `CNC(=O)C(OC)c1ccccc1COc1cc(C)ccc1C` (centres unmarked) [the present amide compound] here?
Answer: 46%

Question: And the “preventive value (%)” value (the present amide compound alone 2.5 ppm (dimethyl sulfoxide solution))?
Answer: 56%

From patent publication US8846720B2, “Pest controlling composition and method for controlling pest” (Sumitomo Chemical Company, Limited, priority 2010, dated 2014)
